Test results taken from patent US20130095059A1, “INHALED NO DONOR KMUPS DERIVATIVE PREVENTING ALLERGIC PULMONARY VASCULAR AND BRONCHIAL INFLAMMATION VIA SUPPRESSED CYTOKINES, INOS AND INFLAMMATORY CELL COUNTS IN ASTHMA MODEL” (priority 2007, published 2013).

What was measured:
5-HTT = 5-HTT expression in pulmonary artery and lung of MCT-treated rats; assay type: in vivo; settings: 21 days after MCT
Procedure: The experiments were performed in adult male Wistar rats (300 to 350 g) in accordance with institutional guidelines after approval by the ethical review committee. PAH development and pulmonary expression of 5-HTT were examined in rats after 60 mg/kg single injection (i.p.) of monocrotaline (MCT). To assess the potential preventive effect of KMUP-1 on MCT-induced PAH and associated proliferation, we assigned rats at random to 2 groups of 8 animals which received KMUP-1 at 5 mg/kg/day p.o or 1 mg/kg/day i.p. All treatments were given once a day for 3 weeks after a single MCT injection (60 mg/kg i.p.) (Abe et al., 2004). On day 21, rats were anesthetized and pulmonary artery blood pressure (MPAP) was recorded as previously described. Lung tissues were dissected for Western blotting and immunohistochemistry.
For 5-HTT immunostaining, the lung slides were dewaxed in 100% xylene, and the sections were then rehydrated by successive immersion first in decreasing ethanol concentrations (100%, 90%, 80%, 50% and 30%) and then in water. Endogenous peroxidase activity was blocked using H2O2 in methanol (0.3% vol/vol) for 10 min. After three PBS washes, sections were pre-incubated in PBS supplemented with 3% (wt/vol) BSA for 30 min, then incubated overnight at 4° C. with goat polyclonal anti-5-HTT antibody (Abcam Biotechnology, Cambridge, UK) diluted to 1:1000 in 1×PBS, 0.02% BSA. […]

PASMCs = PASMCs [Ca2+]i measurement (Fura-2/AM); assay type: cell-based, Wistar rats
Procedure: Wistar rats were anesthetized with an overdose of sodium pentobarbital (60 mg/kg) and the skin was sterilized with 75% alcohol. The chest was opened and the heart and lung were removed. The organs were rinsed several times in PBS. The pulmonary artery were segregated in a sterile manner. The outer sphere was peeled and the microtubule was snipped visually, and endothecia were shaved lightly 2-3 times in order to remove endothelial cells. The tunica media was prepared into scraps (1 mm^3) in DMEM (Dulbecco's modified Eagle's medium). PASMCs were cultured in DMEM containing 10% fetal bovine serum (5% CO2 at 37° C.). The culture medium was changed every 3 days and cells were subcultured until confluence. Primary cultures of 2-4 passages were used in the experiments. Cells were examined by immunofluorescence staining of α-actin to confirm the purity of PASMCs.
The measurement of [Ca^2+]i in PASMCs was performed using a spectrofluorophotometer as previously reported. PASMCs, cultured for 2-4 passages and re-suspended by trypsin, were loaded with Fura-2/AM for the measurement of [Ca^2+]i changes in cells within the cuvette by spectrofluorophotometer (Shimadzu, RF-5301PC, Shimadzu, Japan). KMUP-1 was applied 5 min before application of 5-HT (10 μM).

NO = test: Nitric oxide production in HPAEC (Griess); assay type: cell-based, human; settings: 10 μM, 24 h before adding 5-HT
Procedure: Production of NO in HPAEC was determined using the Griess method. The three step Greiss test converts nitrate (NO3^−) into nitrite (NO2^−) giving a total NO2^− concentration from a standard calibration curve. HPAEC were incubated with or without KMUP-1 (10 μM) for 24 h and then incubated with 5-HT (10 μmol/L) for 30 min. Media samples from HPAEC were taken and the NO concentration was determined. Six independent experiments were carried out and data are reported as the mean mean±SEM.

MMP-9 = test: Short term nebulization, MMP-9 expression in lung tissues; assay type: in vivo, BALB/c mice; settings: nebulization 1.0˜2.5 mM, 30 mins, without ovalbumine sensitization
Procedure: […] […] […] Three different experiments were performed on cohorts of 7˜14 mice per experimental condition.
(§1) The lung tissues were homogenized, washed with PBS and incubated in lysis buffer in addition to a protease inhibitor cocktail (Sigma, St. Louis, Mo.) to obtain extracts of lung proteins. A Western blot analysis was performed as described previously (Wu B N, et al., 2006). The samples were loaded to 10% SDS-PAGE gels and were separated at 120 V for 90 min. The blots were incubated with anti-eNOS antibody diluted at a ratio of 1:500, anti-sGCα1 antibody diluted at a ratio of 1:2000, anti-PKG antibody diluted at a ratio of 1:500, anti-VCAM-1 antibody diluted at a ratio of 1:500, anti-ICAM-1 antibody diluted at a ratio of 1:500, and anti-MMP-9 antibody diluted at a ratio of 1:600 overnight at 4° C. The membranes were stripped and re-blotted with anti-actin antibody (Sigma, St. Louis, Mo.) to verify the equal loading of protein in each lane.

RhoA = test: 5-HT-induced RhoA translocation in PASMCs; assay type: cell-based, Wistar rats; settings: 24 h treatment, 1-100 μM
Procedure: Previous reports have shown that the active form of RhoA is translocated from the cytosol to the plasma membrane, where it activates Rho kinase. Therefore, the membrane/cytosol ratio of RhoA is considered a measure of RhoA activity. The cytosol and membrane protein of PASMCs were extracted with a CNM (cytosol, nuclear, membrane) kit. To assess membrane trans-location of RhoA, protein in membrane and cytosolic fractions was determined by standard Western blot analysis using mouse monoclonal anti-RhoA antibody (1:1000 dilution, Santa Cruz Biotechnology) and a peroxidase-labeled anti-mouse immunoglobulin (Ig) G antibody (1:1000 dilution, Santa Cruz Biotechnology, CA, USA). The relative density of membrane to cytosolic RhoA was determined using NIH imaging software.
The expression of RhoA/ROCK and phosphorylation of ERK1/2 and AKT kinase in PASMCs were assessed by incubating the PASMCs with 5-HT (10 μM) for 15 min (peak time for RhoA/ROCK, ERK1/2 and AKT phosphorylation) and 5-HTT for 10 min (peak time for 5-HTT) after KMUP-1 (1-100 μM) was added to the culture of PASMCs for 24 h.

eNOS = test: Short term nebulization, eNOS expression in lung tissues; assay type: in vivo, BALB/c mice; settings: nebulization 1.0˜2.5 mM, 30 mins, without ovalbumine sensitization
Procedure: […] Aerosols were generated by ultrasonic nebulizer from day 21 to 27. Mice were sacrificed on day 28, (Cataldo D D, et al., 2002). Three different experiments were performed on cohorts of 7˜14 mice per experimental condition.
as §1

Cn1c(=O)c2c(ncn2CCN2CCN(c3ccccc3Cl)CC2)n(C)c1=O [KMUP-1, 7-[2-[4-(2-chlorophenyl)piperazinyl]ethyl]-1,3-dimethylxanthine]
5-HTT protein expression in lung tissue (Western blotting) (5-HTT): significantly reduced
5-HTT expression in pulmonary artery (immunochemistry) (5-HTT; 5 mg/kg p.o. and 1 mg/kg i.p.): significantly decreased
inhibition of sustained [Ca^2+]i response to 5-HT (PASMCs; 10 μM): 65%
5-HT-induced elevation of [Ca^2+]i (PASMCs; 0.1-100 μM, 5-HT 10 μM): concentration-dependently inhibited
release of NO compared to 5-HT treatment alone (NO): raised
MMP-9 expression in mice lung tissues (MMP-9): decreased
5-HT-induced RhoA membrane association (RhoA): dose-dependently reversed
eNOS expression in mice lung tissues (eNOS): dose-dependently increased
